The text below walks through data of patent US10004732B2 (Novartis AG, priority 2014, dated 2018).

Series [1] in a line: Microsomal clearance assay (M). As to conditions: intrinsic clearance in rat liver microsomes. Background: Liver microsomes are vesicles of endoplasmic reticulum, rich in cytochrome P450 enzymes.
Description: The experiments were performed in 96-well glass plates at 37° C. on an automated Tecan EVO platform. Test compounds at a concentration of 10 mM in pure DMSO were diluted 1:1000 in water to 10 μM. […] Reactions were initiated by the addition of 150 μL of a cofactor solution containing 2 mM NADPH.
In series [2] the target is T1, PI 3-kinase gamma (Homo sapiens, UniProt P48736). The series can be described thus: TR-FRET Adapta assay, assay E. Format: biochemical. As to conditions: read-out: Assay E PI3Kγ IC50. Background: Time-resolved FRET reads energy transfer from a long-lived donor to a nearby acceptor.
The target of series [3] is Vps34 (Homo sapiens, UniProt Q8NEB9). The series can be described thus: Kinase Glo Luminescent Kinase Assay (Kglo), assay C. Format: biochemical. The note with it: read-out: Assay C VPS34 IC50.
Series [4] addresses T2, PI 3-kinase delta (Homo sapiens, UniProt O00329). In words: TR-FRET Adapta assay, assay F. The note with it: read-out: Assay F PI3Kδ IC50.
Target sequence in this assay (O00329 whole entry): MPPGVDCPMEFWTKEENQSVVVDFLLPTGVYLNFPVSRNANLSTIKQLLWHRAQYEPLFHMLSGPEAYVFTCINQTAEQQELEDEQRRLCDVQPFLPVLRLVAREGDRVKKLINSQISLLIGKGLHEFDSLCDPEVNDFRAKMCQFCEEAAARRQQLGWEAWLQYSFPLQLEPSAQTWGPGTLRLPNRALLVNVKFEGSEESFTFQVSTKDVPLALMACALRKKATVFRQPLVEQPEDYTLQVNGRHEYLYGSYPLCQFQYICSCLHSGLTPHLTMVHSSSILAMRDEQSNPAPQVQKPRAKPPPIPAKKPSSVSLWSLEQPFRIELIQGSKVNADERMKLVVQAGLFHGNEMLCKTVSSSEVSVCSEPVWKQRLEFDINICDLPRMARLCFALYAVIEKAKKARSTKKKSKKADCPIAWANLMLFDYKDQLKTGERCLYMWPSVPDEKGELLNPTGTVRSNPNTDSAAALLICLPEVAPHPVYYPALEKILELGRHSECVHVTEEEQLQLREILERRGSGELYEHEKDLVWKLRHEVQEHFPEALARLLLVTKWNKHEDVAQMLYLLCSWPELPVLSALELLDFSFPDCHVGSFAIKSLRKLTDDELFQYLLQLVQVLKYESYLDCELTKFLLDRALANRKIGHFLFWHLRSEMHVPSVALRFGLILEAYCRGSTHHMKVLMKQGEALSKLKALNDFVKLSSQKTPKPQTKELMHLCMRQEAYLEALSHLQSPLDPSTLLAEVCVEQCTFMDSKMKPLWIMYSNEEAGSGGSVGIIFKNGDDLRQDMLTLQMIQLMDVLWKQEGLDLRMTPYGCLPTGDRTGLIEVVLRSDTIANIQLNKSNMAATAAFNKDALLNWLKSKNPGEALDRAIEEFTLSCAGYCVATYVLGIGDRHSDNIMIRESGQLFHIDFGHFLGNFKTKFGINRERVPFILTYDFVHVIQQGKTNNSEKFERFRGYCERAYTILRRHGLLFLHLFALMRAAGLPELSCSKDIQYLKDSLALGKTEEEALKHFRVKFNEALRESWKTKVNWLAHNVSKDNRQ
Target sequence in this assay (P27986 461-568 partner): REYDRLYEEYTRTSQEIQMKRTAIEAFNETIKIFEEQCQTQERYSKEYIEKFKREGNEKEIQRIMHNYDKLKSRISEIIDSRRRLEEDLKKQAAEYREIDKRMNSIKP
Series [5] concerns the target T3, PI 3-kinase beta (Homo sapiens, UniProt P42338). The series can be described thus: Kinase Glo Luminescent Kinase Assay (Kglo), assay B. The series is classed as biochemical. The note with it: read-out: Assay B PI3Kβ IC50. (In general: Kinase-Glo reads ATP consumption through a luciferase reaction.)
The target of series [6] is mTOR (Homo sapiens, UniProt P42345). In words: Lanthascreen kinase binding assay, assay G. The note with it: read-out: Assay G mTOR IC50.
Description: Lanthascreen™ Kinase Binding Assay for mTOR (G)
Binding of an inhibitor to the kinase competes for binding with the tracer, resulting in a loss of FRET.
50 nL of compound dilutions were dispensed onto white 384-well small volume polystyrene plate.
Series [7] concerns the target PI 4-kinase beta (Homo sapiens, UniProt Q9UBF8). In words: Kinase Glo Luminescent Kinase Assay (Kglo), assay D. The series is classed as biochemical. As to conditions: read-out: Assay D PI4Kβ IC50.
The target of series [8] is T4, PI 3-kinase alpha (Homo sapiens, UniProt P42336). In words: Kinase Glo Luminescent Kinase Assay (Kglo), assay A. The note with it: read-out: Assay A PI3Kα IC50. Format: biochemical.
Target sequence in this assay (P42336 whole entry): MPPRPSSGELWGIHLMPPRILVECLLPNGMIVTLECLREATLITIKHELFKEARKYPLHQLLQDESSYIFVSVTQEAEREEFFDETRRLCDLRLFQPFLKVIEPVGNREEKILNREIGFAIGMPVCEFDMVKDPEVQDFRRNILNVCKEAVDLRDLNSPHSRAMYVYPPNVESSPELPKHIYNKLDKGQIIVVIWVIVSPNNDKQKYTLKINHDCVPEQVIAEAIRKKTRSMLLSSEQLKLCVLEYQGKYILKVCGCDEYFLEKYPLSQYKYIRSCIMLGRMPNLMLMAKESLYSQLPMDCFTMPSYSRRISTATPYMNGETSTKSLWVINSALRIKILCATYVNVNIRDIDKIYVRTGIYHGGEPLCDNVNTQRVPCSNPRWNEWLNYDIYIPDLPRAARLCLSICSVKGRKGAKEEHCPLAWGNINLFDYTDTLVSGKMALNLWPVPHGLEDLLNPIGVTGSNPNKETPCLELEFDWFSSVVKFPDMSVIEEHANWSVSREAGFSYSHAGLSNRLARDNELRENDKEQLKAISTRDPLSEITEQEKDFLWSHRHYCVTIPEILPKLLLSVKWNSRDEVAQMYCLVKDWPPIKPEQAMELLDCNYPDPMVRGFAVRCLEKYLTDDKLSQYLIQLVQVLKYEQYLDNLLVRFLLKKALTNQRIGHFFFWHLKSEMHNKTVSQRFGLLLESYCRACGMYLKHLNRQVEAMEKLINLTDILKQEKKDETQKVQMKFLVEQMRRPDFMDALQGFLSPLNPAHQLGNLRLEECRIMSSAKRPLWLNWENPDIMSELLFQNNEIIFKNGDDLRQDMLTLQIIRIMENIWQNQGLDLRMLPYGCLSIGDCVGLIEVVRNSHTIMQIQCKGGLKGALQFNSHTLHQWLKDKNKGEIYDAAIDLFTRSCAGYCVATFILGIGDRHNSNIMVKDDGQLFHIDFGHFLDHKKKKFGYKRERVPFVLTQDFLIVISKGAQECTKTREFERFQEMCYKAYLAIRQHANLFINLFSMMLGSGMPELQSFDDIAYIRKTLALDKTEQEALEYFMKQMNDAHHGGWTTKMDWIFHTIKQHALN
Description: Kinase Glo Luminescent Kinase Assay (Kglo) for Pb 3-Kinase Alpha (A), Pb 3-Kinase Beta (B), Vps34 (C), Pb 4-Kinase Beta (D)
The Kinase Glo Luminescent Kinase Assay (Promega, Madison/Wis., USA) is a homogeneous HTS method of measuring kinase activity by quantifying the amount of ATP remaining in solution following a kinase reaction.
L-α-phosphatidylinositol (PI), provided as 10 mg/ml solution in methanol, was transferred into a glass tube and dried under a nitrogen beam. It was then resuspended in 3% OctylGlucoside (1-0-n-octyl-beta-D-glucopyranoside) by vortexing and stored at 4° C. 5 μL of a mix of PI/OctylGlucoside with the PI 3-kinase alpha and PI 3-kinase beta subtypes, or Vps34 or PI 4-kinase beta were added. Kinase reactions were started by the addition of 5 μl of an ATP-mix containing in a final volume 10 μL 10 mM TRIS-HCl pH 7.5, 3 mM MgCl2, 50 mM NaCl, 0.05% CHAPS, 1 mM DTT and 1 μM ATP at room temperature.
All fits were performed with the program XLfit4 (ID Business Solutions, Guildford, UK).
The target of series [9] is T1, PI 3-kinase gamma. The series can be described thus: Cellular U937 AKT assay K1 (MSD). Format: cell-based. The note with it: U937 cells, K1 format; read-out: Assay K1 PI3Kγ IC50.
Series [10] deals with T3, PI 3-kinase beta. In words: Cellular assay I1, p-Akt (S473) in Rat-1 cells, Surefire format. The series is classed as cell-based. As to conditions: non-asterisked data: version I1 (Surefire format), Rat-1 cells; read-out: Assay I PI3Kβ IC50.
The target of series [11] is T4, PI 3-kinase alpha. In words: Cellular assay H1, p-Akt (S473) in Rat-1 cells, Surefire format. The series is classed as cell-based. As to conditions: non-asterisked data: version H1 (Surefire format), Rat-1 cells; read-out: Assay H PI3Kα IC50.
Target sequence in this assay (P42336 whole entry): as above
Target sequence in this assay (Q63787 whole entry partner): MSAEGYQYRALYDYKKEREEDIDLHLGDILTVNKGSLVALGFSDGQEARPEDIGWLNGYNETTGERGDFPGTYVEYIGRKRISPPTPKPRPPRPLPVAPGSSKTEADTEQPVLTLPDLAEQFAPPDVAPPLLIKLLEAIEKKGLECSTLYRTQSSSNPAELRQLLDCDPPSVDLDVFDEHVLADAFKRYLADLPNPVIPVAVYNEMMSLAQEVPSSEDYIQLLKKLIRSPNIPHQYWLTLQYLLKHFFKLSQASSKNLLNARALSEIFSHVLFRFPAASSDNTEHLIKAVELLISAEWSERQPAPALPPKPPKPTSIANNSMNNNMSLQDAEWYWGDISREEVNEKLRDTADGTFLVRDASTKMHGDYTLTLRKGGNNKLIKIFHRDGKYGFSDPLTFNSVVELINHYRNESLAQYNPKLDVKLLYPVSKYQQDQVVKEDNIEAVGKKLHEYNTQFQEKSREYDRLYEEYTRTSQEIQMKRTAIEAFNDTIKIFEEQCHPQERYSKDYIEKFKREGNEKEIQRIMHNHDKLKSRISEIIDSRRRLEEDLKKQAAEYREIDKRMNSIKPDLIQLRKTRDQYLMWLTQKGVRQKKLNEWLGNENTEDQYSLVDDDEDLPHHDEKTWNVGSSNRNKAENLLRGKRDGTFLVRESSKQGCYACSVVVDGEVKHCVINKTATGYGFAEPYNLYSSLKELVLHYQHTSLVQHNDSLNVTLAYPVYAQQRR
For series [12], the target named is T2, PI 3-kinase delta. The series can be described thus: Cellular assay J1, p-Akt (S473) in Rat-1 cells, Surefire format. Format: cell-based. As to conditions: non-asterisked data: version J1 (Surefire format), Rat-1 cells; read-out: Assay J PI3Kδ IC50.
Target sequence in this assay (O00329 whole entry): as the sequence (O00329 whole entry) above
Target sequence in this assay (Q63787 whole entry partner): as the sequence (Q63787 whole entry partner) above

Sequence of Vps34 (Q8NEB9 whole entry, species assumed): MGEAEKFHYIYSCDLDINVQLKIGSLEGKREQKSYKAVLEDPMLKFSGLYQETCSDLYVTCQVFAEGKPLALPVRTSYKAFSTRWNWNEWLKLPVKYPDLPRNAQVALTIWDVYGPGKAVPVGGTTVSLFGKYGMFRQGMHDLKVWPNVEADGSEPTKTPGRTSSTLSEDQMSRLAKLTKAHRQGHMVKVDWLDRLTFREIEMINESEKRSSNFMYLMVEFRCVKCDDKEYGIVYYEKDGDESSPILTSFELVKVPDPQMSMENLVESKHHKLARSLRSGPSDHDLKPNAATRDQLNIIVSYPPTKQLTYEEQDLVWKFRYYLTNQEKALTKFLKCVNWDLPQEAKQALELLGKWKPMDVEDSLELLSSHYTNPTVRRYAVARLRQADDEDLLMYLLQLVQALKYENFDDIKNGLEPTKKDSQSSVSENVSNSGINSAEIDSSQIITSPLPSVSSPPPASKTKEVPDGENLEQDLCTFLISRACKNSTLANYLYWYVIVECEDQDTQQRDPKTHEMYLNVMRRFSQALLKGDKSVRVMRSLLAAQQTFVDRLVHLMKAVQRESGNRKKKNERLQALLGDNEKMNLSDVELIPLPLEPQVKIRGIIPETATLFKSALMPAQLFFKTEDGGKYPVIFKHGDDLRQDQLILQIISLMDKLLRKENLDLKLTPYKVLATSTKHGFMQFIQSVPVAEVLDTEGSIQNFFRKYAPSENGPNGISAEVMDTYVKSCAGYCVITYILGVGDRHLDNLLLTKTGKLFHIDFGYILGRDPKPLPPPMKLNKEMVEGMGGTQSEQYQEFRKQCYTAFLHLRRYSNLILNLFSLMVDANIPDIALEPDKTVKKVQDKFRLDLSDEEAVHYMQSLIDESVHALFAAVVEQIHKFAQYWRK
Sequence of PI 4-kinase beta (Q9UBF8 whole entry): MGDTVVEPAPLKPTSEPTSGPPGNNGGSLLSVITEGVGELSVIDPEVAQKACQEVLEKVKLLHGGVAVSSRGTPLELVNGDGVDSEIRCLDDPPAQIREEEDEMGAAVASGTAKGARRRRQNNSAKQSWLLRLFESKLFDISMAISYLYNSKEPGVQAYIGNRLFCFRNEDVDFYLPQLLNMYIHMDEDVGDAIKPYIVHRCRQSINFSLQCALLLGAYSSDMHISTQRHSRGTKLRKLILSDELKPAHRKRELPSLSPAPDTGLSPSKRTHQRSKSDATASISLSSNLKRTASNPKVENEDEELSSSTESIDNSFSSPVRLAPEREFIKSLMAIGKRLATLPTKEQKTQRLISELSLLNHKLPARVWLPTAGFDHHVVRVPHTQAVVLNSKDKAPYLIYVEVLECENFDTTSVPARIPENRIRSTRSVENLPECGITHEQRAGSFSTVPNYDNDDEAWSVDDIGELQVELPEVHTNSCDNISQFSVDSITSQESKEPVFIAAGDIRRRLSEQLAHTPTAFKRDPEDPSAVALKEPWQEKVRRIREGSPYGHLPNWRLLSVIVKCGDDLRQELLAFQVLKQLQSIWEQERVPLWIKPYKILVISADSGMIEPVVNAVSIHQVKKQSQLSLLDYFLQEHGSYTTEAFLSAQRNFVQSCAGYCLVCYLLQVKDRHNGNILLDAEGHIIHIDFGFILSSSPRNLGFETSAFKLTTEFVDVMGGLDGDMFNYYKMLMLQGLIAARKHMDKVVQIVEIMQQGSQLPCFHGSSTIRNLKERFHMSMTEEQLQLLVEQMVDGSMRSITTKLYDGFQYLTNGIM

A word on the IC50: it is the point on the concentration scale where inhibition reaches its midpoint. As for `Cc1nc(-c2nc(-c3cc(S(=O)(=O)NCC(C)(C)O)ccc3C)cnc2N)c(C)s1` [Example 40, 3-(5-Amino-6-(2,5-dimethylthiazol-4-yl)pyrazin-2-yl)-N-(2-hydroxy-2-methylpropyl)-4-methylbenzenesulfonamide], the “Assay M RLM CI(int)” value in series [1] came to 92 µL/min/mg. In addition, the IC50 was 36 nM in series [2]; > 10000 nM in series [3]; 840 nM in series [4]; 1400 nM in [5]; 3800 nM in series [6]; > 10000 nM in series [7]. In addition, the IC50 in series [8] is 760 nM; in [9] it was 40 nM.
With `CCc1noc(-c2nc(-c3cc(S(=O)(=O)N4CCC(CO)CC4)ccc3C)cnc2N)n1` [Example 141, (1-((3-(5-Amino-6-(3-ethyl-1,2,4-oxadiazol-5-yl)pyrazin-2-yl)-4-methylphenyl)sulfonyl)piperidin-4-yl)methanol], the IC50 was 8750 nM in [10]; 54 nM in series [2]; > 9100 nM in [3]; 4700 nM in series [11]; 340 nM in series [4]; > 9100 nM in series [5]. The IC50 is > 9100 nM in [6]; > 9100 nM in [7]; 5310 nM in series [12]; 1770 nM in series [8]; 947 nM in series [9].
Consider `Cc1csc(-c2nc(-c3cc(S(=O)(=O)NCCC(C)(C)O)ccc3C)cnc2N)c1` [Example 119.43], for which the “Assay M RLM CI(int)” value in series [1] was determined as 136 µL/min/mg. For the same molecule, the IC50 is 54 nM in series [2]; > 9100 nM in [3]; 100 nM in [4]; 1780 nM in series [5]; 3370 nM in series [6]; > 9100 nM in series [7]. In addition, the IC50 amounted to 250 nM in series [8] and 60 nM in [9].
In the case of `Cc1ccc(S(=O)(=O)NCC2(CO)CCCC2)cc1-c1cnc(N)c(-n2cncn2)n1` [Example 127.25], the “Assay M RLM CI(int)” value in [1] was found to be 493 µL/min/mg. Also, the IC50 in series [2] was 31 nM; in series [3], > 10000 nM; in series [4], 340 nM; in series [5] it was 650 nM; in series [6] it was 3300 nM; in [7], 4400 nM. Moreover, the IC50 came out at 130 nM in series [8] and 66 nM in series [9].
`Cc1cc(-c2nc(-c3cc(S(=O)(=O)NCCC(C)(O)C(F)(F)F)ccc3C)cnc2N)ccn1` (centres unmarked) [Example 129.13, 3-(5-amino-6-(2-methylpyridin-4-yl)pyrazin-2-yl)-4-methyl-N-(4,4,4-trifluoro-3-hydroxy-3-methylbutyl)benzenesulfonamide]: the 50% inhibitory concentration (IC50) in series [10] is > 10000 nM; in series [2] it was 28 nM; in series [3], > 9100 nM; in series [4] it was 260 nM; in series [5], > 9100 nM; in series [6], > 9100 nM. Further, the IC50 is > 9100 nM in series [7], 5860 nM in [12], 300 nM in [8] and 144 nM in [9]. In addition, the “Assay M RLM CI(int)” value in series [1] worked out at 170 µL/min/mg.
With `Cc1ccc(S(=O)(=O)NCCCF)cc1-c1cnc(N)c(-n2cncn2)n1` [Example 127.29], the IC50 in series [2] is 124 nM; in series [3], > 10000 nM; in series [4] it was 640 nM; in series [5] it was 1800 nM; in series [6], > 10000 nM; in series [7], 3900 nM. Also, the IC50 came out at 240 nM in series [8] and 131 nM in series [9].
Take `Cc1ccc(S(=O)(=O)NC[C@H]2C[C@@H](O)C2)cc1-c1cnc(N)c(-c2cc(C3CC3)no2)n1` [Example 100, 3-(5-Amino-6-(3-cyclopropylisoxazol-5-yl)pyrazin-2-yl)-N-(((1s,3s)-3-hydroxycyclobutyl)methyl)-4-methylbenzenesulfonamide]: the “Assay M RLM CI(int)” value in series [1] came out at 95 µL/min/mg. The IC50 was 3 nM in series [2]; 7200 nM in series [3]; 680 nM in series [4]; 5300 nM in series [5]; > 9550 nM in series [6]; 5750 nM in series [7]. The IC50 was 500 nM in [8] and 74 nM in [9].
Consider `Cc1ccc(S(=O)(=O)NCCC(C)(O)C(F)(F)F)cc1-c1cnc(N)c(-n2cncn2)n1` (centres unmarked) [Example 127.24], for which the IC50 in [2] is 27 nM; in series [3] it was > 10000 nM; in [4], 320 nM; in [5], 790 nM; in series [6], 4700 nM; in series [7], 1800 nM. Moreover, the IC50 in series [8] worked out at 200 nM; in series [9] it was 168 nM.
For the molecule `Cc1ccc(S(=O)(=O)NCC2COC2)cc1-c1cnc(N)c(-n2cncn2)n1` [Example 131, 3-(5-Amino-6-(1H-1,2,4-triazol-1-yl)pyrazin-2-yl)-4-methyl-N-(oxetan-3-ylmethyl)benzenesulfonamide], in [1], the “Assay M RLM CI(int)” value came to 42 µL/min/mg. Besides, the IC50 came out at 42 nM in series [2]; 4300 nM in series [3]; 760 nM in [4]; 2450 nM in series [5]; 3700 nM in [6]; 4950 nM in [7]. The figures for the IC50 in series [8] and in series [9] were 370 nM and 493 nM, respectively.
With `Cc1ccc(S(=O)(=O)NCCC(C)(C)O)cc1-c1cnc(N)c(-c2cc(C3CC3)no2)n1` [Example 78, 3-(5-Amino-6-(3-cyclopropylisoxazol-5-yl)pyrazin-2-yl)-N-(3-hydroxy-3-methylbutyl)-4-methylbenzenesulfonamide], the “Assay M RLM CI(int)” value in series [1] worked out at 152 µL/min/mg. Further, the IC50 in series [2] was 13 nM; in series [3], > 9550 nM; in series [4], 180 nM; in series [5], 2200 nM; in series [6], 2350 nM; in series [7] it was 1550 nM. For the same molecule, the IC50 in [8] came to 240 nM; in series [9], 66 nM.
In the case of `Cc1ccc(S(=O)(=O)NCCC(C)(C)O)cc1-c1cnc(N)c(-c2cccs2)n1` [Example 119.45], in series [1], the “Assay M RLM CI(int)” value came to 188 µL/min/mg. In addition, the IC50 in [2] is 12 nM; in series [3] it was > 9100 nM; in [4], 100 nM; in series [5], 3600 nM; in [6], 8690 nM; in [7], 2460 nM. Further, the IC50 was 150 nM in series [8] and 85 nM in series [9].
With `Cc1ccc(S(=O)(=O)NCC2COCCN2C)cc1-c1cnc(N)c(-c2cn(C)nc2C)n1` (centres unmarked) [Example 128.2, 3-(5-Amino-6-(1,3-dimethyl-1H-pyrazol-4-yl)pyrazin-2-yl)-4-methyl-N-((4-methylmorpholin-3-yl)methyl)benzenesulfonamide], the “Assay M RLM CI(int)” value in series [1] is 27 µL/min/mg. In addition, the IC50 in [2] was 49 nM; in series [3], > 10000 nM; in [11] it was 1910 nM; in series [4] it was 450 nM; in series [7], > 10000 nM; in [12] it was 1570 nM. For the same molecule, the values for the IC50 in series [8] and in series [9] were 270 nM and 90 nM, respectively.
`Cc1ccc(S(=O)(=O)NOCCN(C)C)cc1-c1cnc(N)c(-n2cncn2)n1` [Example 112.2, 3-(5-Amino-6-(1H-1,2,4-triazol-1-yl)pyrazin-2-yl)-N-(2-(dimethylamino)ethoxy)-4-methylbenzenesulfonamide]: the IC50 in [10] was > 10000 nM; in [2], 104 nM; in [3] it was > 10000 nM; in series [4], 1200 nM; in series [5] it was 1300 nM; in [6], > 10000 nM. The IC50 in [7] was 5400 nM; in [12], > 10000 nM; in series [8], 860 nM; in [9], 137 nM.
As to `Cc1noc(-c2nc(-c3cc(S(=O)(=O)NC[C@H]4C[C@@H](O)C4)ccc3C)cnc2N)n1` [Example 96, 3-(5-Amino-6-(3-methyl-1,2,4-oxadiazol-5-yl)pyrazin-2-yl)-N-(((1s,3s)-3-hydroxycyclobutyl)methyl)-4-methylbenzenesulfonamide], the “Assay M RLM CI(int)” value in [1] stood at 62 µL/min/mg. The IC50 is 92 nM in [2]; 550 nM in series [4]; 3350 nM in series [5]; 8800 nM in series [6]; > 9550 nM in [7]; 550 nM in [8]. The IC50 in series [9] was 276 nM.
On to `Cc1cc(-c2nc(-c3cc(S(=O)(=O)NCCC(C)(C)O)ccc3C)cnc2N)n(C)n1` [Example 119.36], for which the “Assay M RLM CI(int)” value in series [1] was 48 µL/min/mg. The concentration for half-maximal inhibition (IC50) in series [2] is 34 nM; in [3], > 9100 nM; in series [4], 170 nM; in series [5], 4410 nM; in series [6], > 9100 nM; in series [7] it was > 9100 nM. Besides, the IC50 in series [8] was determined as 220 nM; in series [9], 1280 nM.
